Consider 30 compounds from patent US8916599B2, “1H-benz imidazole-5-carboxamides as anti-inflammatory agents” (Orexo AB, priority 2008, dated 2014).

The target of series [1] is T1, recombinant human mPGES-1 (Homo sapiens, UniProt O14684).
T1 construct: made in house; host or cells: Rosetta E. coli (microsomal/membrane fraction)
T1 sequence (O14684 1-152): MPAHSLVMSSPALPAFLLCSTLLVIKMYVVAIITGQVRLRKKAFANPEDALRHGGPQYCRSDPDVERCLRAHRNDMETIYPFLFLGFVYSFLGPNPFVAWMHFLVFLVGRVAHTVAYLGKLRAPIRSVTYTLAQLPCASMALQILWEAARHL
In words: mPGES-1 inhibition test (microsomes, PGH2 substrate, HTRF detection of PGE2). The series is classed as biochemical. The gist of the method: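 Microsomes from E. coli Rosetta expressing the enzyme, in 0.1 M KPi pH 7.4 with 2.5 mM GSH, were preincubated 25 min at room temperature with inhibitor in DMSO. PGH2 was added, the reaction stopped after one minute with acidified FeCl2, and PGE2 quantified by HTRF after 750-fold dilution.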

One may read the melting point as the temperature of the solid-liquid transition. In general, inhibition refers to how much of the control response was suppressed. Compound `COCCOc1cccc(NC(=O)c2ccc3c(c2)nc(Nc2c(Cl)cccc2Cl)n3C)n1` [Example 302, 2-(2,6-Dichloro-phenylamino)-1-methyl-1H-benzimidazole-5-carboxylic acid [6-(2-methoxy-ethoxy)-pyridin-2-yl]-amide] yielded a melting point of 185 to 187 °C. For the same compound, the inhibition at 10 µM in series [1] (inhibition of mPGES-1 at 10 μM) was found to be 86%. With `O=C(Nc1ccccc1C(F)(F)F)c1ccc2[nH]c(Nc3c(Cl)cccc3Cl)nc2c1` [Example 113, 2-(2,6-Dichloro-phenylamino)-1H-benzimidazole-5-carboxylic acid (2-trifluoromethyl-phenyl)-amide], the melting point was 143 to 145 °C. In addition, the inhibition at 10 µM in series [1] (inhibition of mPGES-1 at 10 μM) is 91%. Compound `O=C(Nc1ccccn1)c1ccc2[nH]c(Nc3c(Cl)cccc3Cl)nc2c1` [Example 293, 2-(2,6-Dichloro-phenylamino)-1H-benzimidazole-5-carboxylic acid pyridin-2-ylamide] displayed a melting point of 245 to 247 °C. Further, in series [1] (inhibition of mPGES-1 at 10 μM), the inhibition at 10 µM was 87%. The like results for `O=C(Nc1cc(C(F)(F)F)ccn1)c1ccc2[nH]c(Nc3c(Cl)cccc3Cl)nc2c1` [Example 304, 2-(2,6-Dichloro-phenylamino)-1H-benzimidazole-5-carboxylic acid (4-trifluoromethyl-pyridin-2-yl)-amide] were, in that order, 179 to 182 °C and 98%. Taken in the same sequence, the figures for `Cc1ccnc(NC(=O)c2ccc3c(c2)nc(Nc2c(Cl)cccc2Cl)n3C)c1` [Example 335, 2-(2,6-Dichloro-phenylamino)-1-methyl-1H-benzimidazole-5-carboxylic acid (4-methyl-pyridin-2-yl)-amide] were 157 to 159 °C and 95%. Taken in the same sequence, the figures for `O=C(Nc1nc(C(F)(F)F)cs1)c1ccc2[nH]c(Nc3c(Cl)cccc3Cl)nc2c1` [Example 319, 2-(2,6-Dichloro-phenylamino)-1H-benzimidazole-5-carboxylic acid (4-trifluoro-methyl-thiazol-2-yl)-amide] were 301 to 303 °C and 100%. Take `Cn1c(Nc2c(Cl)cccc2Cl)nc2cc(C(=O)Nc3cccc(Cl)c3)ccc21` [Example 297, 2-(2,6-Dichloro-phenylamino)-1-methyl-1H-benzimidazole-5-carboxylic acid (3-chloro-phenyl)-amide]: the melting point fell in the range of 175 to 176 °C. The inhibition at 10 µM in series [1] (inhibition of mPGES-1 at 10 μM) was determined as 97%. The like results for `Cc1ccc(Cl)cc1NC(=O)c1ccc2[nH]c(Nc3c(Cl)cccc3Cl)nc2c1` [Example 110, 2-(2,6-Dichloro-phenylamino)-1H-benzimidazole-5-carboxylic acid (5-chloro-2-methyl-phenyl)-amide] were, in that order, 178 to 180 °C and 96%. As to `Cn1c(Nc2c(F)cccc2F)nc2cc(C(=O)NC3CCC(C)(C)CC3)ccc21` [Example 172, 2-(2,6-Difluoro-phenylamino)-1-methyl-1H-benzimidazole-5-carboxylic acid (4,4-dimethyl-cyclohexyl)-amide], the inhibition at 10 µM in series [1] (inhibition of mPGES-1 at 10 μM) was determined as 97%. With `CC(C)CCCNC(=O)c1cc2nc(Nc3c(Cl)cccc3Cl)n(C)c2cc1F` [Example 408, 2-(2,6-Dichlorophenylamino)-6-fluoro-1-methyl-N-(4-methylpentyl)-1H-benzimidazole-5-carboxamide], the inhibition at 10 µM in series [1] (inhibition of mPGES-1 at 10 μM) came out at 100%.

For the compound `CCOc1cc2[nH]c(Nc3c(Cl)ccc(Cl)c3F)nc2cc1C(=O)Nc1cccc(Cl)c1` [Example 603, 2-(3,6-Dichloro-2-fluoro-phenylamino)-N-(3-chloro-phenyl)-6-ethoxy-1H-benzimidazole-5-carboxamide], the inhibition at 10 µM in series [1] (inhibition of mPGES-1 at 10 μM) is 90%. `Cc1cc2[nH]c(Nc3c(Cl)cccc3Cl)nc2cc1C(=O)Nc1ccc(C(C)(C)C)cc1` [Example 122, 2-(2,6-Dichloro-phenylamino)-6-methyl-1H-benzimidazol-5-carboxylic acid (4-tert.-butyl-phenyl)-amide]: the inhibition at 10 µM in series [1] (inhibition of mPGES-1 at 10 μM) was 99%.

`Cn1c(Nc2c(F)cccc2Cl)nc2cc(C(=O)NC3CCC(C)(C)CC3)c(F)cc21` [Example 430, 2-(2-Chloro-6-fluorophenylamino)-N-(4,4-dimethylcyclohexyl)-6-fluoro-1-methyl-1H-benzimidazole-5-carboxamide]: the inhibition at 10 µM in series [1] (inhibition of mPGES-1 at 10 μM) is 100%. Same read-out and setting: with `O=C(Nc1cccc(Cl)c1)c1cc2nc(Nc3c(Cl)ccc(Cl)c3F)[nH]c2cc1F` [Example 598, 2-(3,6-Dichloro-2-fluoro-phenylamino)-N-(3-chlorphenyl)-6-fluoro-1H-benzimidazole-5-carboxamide] the figure was 100%; with `O=C(NC1Cc2ccccc2C1)c1cc2nc(Nc3c(Cl)cccc3Cl)[nH]c2cc1Cl` [Example 58, 2-(2,6-Dichloro-phenylamino)-6-chloro-1H-benzimidazol-5-carboxylic acid indan-2-yl-amide], 90%; with `Cn1c(Nc2c(Cl)cccc2Cl)nc2cc(C(=O)Nc3cccc(Cl)c3)cc(Br)c21` [Example 405, 7-Bromo-N-(3-chlorophenyl)-2-(2,6-dichlorophenylamino)-1-methyl-1H-benzimidazole-5-carboxamide], 100%. As to `C[C@@H]1CCC[C@@H](NC(=O)c2cc3nc(Nc4c(Cl)cccc4Cl)n(C)c3cc2F)C1` [Example 442, 2-(2,6-Dichlorophenylamino)-6-fluoro-1-methyl-N-((1R,3R)-3-methylcyclohexyl)-1H-benzimidazole-5-carboxamide], the inhibition at 10 µM in series [1] (inhibition of mPGES-1 at 10 μM) is 99%. The same measure, in the same setting: with `Cn1c(Nc2c(Cl)cccc2Cl)nc2cc(C(=O)NC3CCCCC3C(F)(F)F)ccc21` (centres unmarked) [Example 254, 2-(2,6-Dichloro-phenylamino)-1-methyl-1H-benzimidazole-5-carboxylic acid (2-trifluoromethyl-cyclohexyl)-amide] the figure was 100%; with `Cn1c(Nc2ccc(Cl)cc2Cl)nc2cc(C(=O)Nc3ccc(Br)cc3)ccc21` [Example 519, N-(4-Bromophenyl)-2-(2,4-dichlorophenylamino)-1-methyl-1H-benzimidazole-5-carboxamide], 95%; with `Cc1ccnc(NC(=O)c2ccc3[nH]c(Nc4c(Cl)cccc4Cl)nc3c2)c1` [Example 116, 2-(2,6-Dichloro-phenylamino)-1H-benzimidazole-5-carboxylic acid (4-methyl-pyridin-2-yl)-amide], 92%.

Turning to `COCCn1c(Nc2c(Cl)cccc2Cl)nc2cc(C(=O)NC3CCC(C)(C)CC3)ccc21` [Example 180, 2-(2,6-Dichloro-phenylamino)-1-(2-methoxy-ethyl)-1H-benzimidazole-5-carboxylic acid (4,4-dimethyl-cyclohexyl)-amide], in series [1] (inhibition of mPGES-1 at 10 μM), the inhibition at 10 µM stood at 98%. Consider `Cc1ccc(Cl)c(Nc2nc3cc(C(=O)NC4CCC(C)(C)CC4)c(F)cc3n2C)c1F` [Example 627, 2-(6-Chloro-2-fluoro-3-methyl-phenylamino)-6-fluoro-N-(4,4-dimethyl-cyclohex-1-yl)-1-methyl-1H-benzimidazole-5-carboxamide], for which, in series [1] (inhibition of mPGES-1 at 1 μM (marked in cell)), the inhibition at 1 µM came out at 94%.

Regarding `O=C(NC1CCC(C(F)(F)F)CC1)c1cc2nc(Nc3c(F)ccc(Cl)c3Cl)[nH]c2cc1OCC(F)(F)F` (stereo not drawn) [Example 591, 2-(2,3-Dichloro-6-fluoro-phenylamino)-6-(2,2,2-trifluoro-ethoxy)-N-(4-trans-trifluoromethyl-cyclohex-1-yl) 1H-benzimidazole-5-carboxamide], in series [1] (inhibition of mPGES-1 at 10 μM), the inhibition at 10 µM came out at 99%. On the same count and under the same terms, the figure for `CCCC[C@@H](C)NC(=O)c1cc2nc(Nc3c(Cl)cccc3Cl)[nH]c2cc1F` [Example 457, (R)-2-(2,6-Dichlorophenylamino)-6-fluoro-N-(hexan-2-yl)-1H-benzimidazole-5-carboxamide] is 100%; for `CCC1CCC(NC(=O)c2cc3nc(Nc4c(F)cccc4Cl)n(C)c3cc2F)C1` (centres unmarked) [Example 392, 2-(2-Chloro-6-fluorophenylamino)-N-(3-ethylcyclopentyl)-6-fluoro-1-methyl-1H-benzimidazole-5-carboxamide] it is 100%; for `O=C(Nc1cc(Br)ccn1)c1ccc2[nH]c(Nc3c(Cl)cccc3Cl)nc2c1` [Example 184, 2-(2,6-Dichloro-phenylamino)-1H-benzimidazole-5-carboxylic acid (4-bromo-pyridin-2-yl)-amide] it is 98%.

Regarding `CS(=O)(=O)c1cccc(NC(=O)c2ccc3[nH]c(Nc4c(Cl)cccc4Cl)nc3c2)c1` [Example 224, 2-(2,6-Dichloro-phenylamino)-1H-benzimidazole-5-carboxylic acid (3-methanesulfonyl-phenyl)-amide], the inhibition at 10 µM in series [1] (inhibition of mPGES-1 at 10 μM) stood at 100%. As for `Cn1c(Nc2c(Cl)cccc2Cl)nc2cc(C(=O)NCc3ccccn3)c(F)cc21` [Example 552, 2-(2,6-Dichlorophenylamino)-6-fluoro-1-methyl-N-(pyridin-2-ylmethyl)-1H-benzimidazole-5-carboxamide], in series [1] (inhibition of mPGES-1 at 10 μM, 10 µM), the “% inhib.” value worked out at 77%. Turning to `Cn1c(Nc2c(Cl)cccc2Cl)nc2cc(C(=O)NC3(C)CCCCC3)c(F)cc21` [Example 164, 2-(2,6-Dichloro-phenylamino)-6-fluoro-1-methyl-1H-benzimidazole-5-carboxylic acid (1-methyl-cyclohexyl)-amide], the inhibition at 10 µM in series [1] (inhibition of mPGES-1 at 10 μM) stood at 100%.

For `O=C(NCc1ccc(C(F)(F)F)cn1)c1ccc2[nH]c(Nc3c(Cl)cccc3Cl)nc2c1` [Example 222, 2-(2,6-Dichloro-phenylamino)-1H-benzimidazole-5-carboxylic acid (5-trifluoromethyl-pyridin-2-ylmethyl)-amide], the inhibition at 10 µM in series [1] (inhibition of mPGES-1 at 10 μM) was found to be 74%.
